Laboratory results published in BindingDB's records for doi:10.1016/j.chembiol.2008.10.014 (Columbia University, 2008).

Target: T1, Olfactory receptor (Rattus norvegicus, UniProt D3Z9H0)
T1 sequence (D3Z9H0 whole entry): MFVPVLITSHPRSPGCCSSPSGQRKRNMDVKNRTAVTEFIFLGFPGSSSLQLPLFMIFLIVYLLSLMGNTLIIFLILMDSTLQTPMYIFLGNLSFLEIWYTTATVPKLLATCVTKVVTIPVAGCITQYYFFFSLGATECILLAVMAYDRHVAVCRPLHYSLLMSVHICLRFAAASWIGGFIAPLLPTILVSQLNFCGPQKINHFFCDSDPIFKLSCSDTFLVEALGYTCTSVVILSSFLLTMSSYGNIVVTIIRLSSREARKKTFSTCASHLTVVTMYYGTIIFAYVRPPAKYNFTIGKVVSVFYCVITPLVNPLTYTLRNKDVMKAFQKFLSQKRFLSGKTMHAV
Assay: Inhibition Assay
Text: Inhibition assay of olfactory receptors 17 activation.

| IC50 [µM] | SMILES |
| --- | --- |
| 133 | CCCCCC=O [Aldehydes, C6] |
| 60 | O=CCCC1CCCC1 [Aldehydes, 4] |
| 37 | O=CCC1CCCCC1 [Aldehydes, 5] |
| 57 | O=CC1CCCCCC1 [Aldehydes, 6] |

| SMILES | IC50 [µM] |
| --- | --- |
| CCCCC=O [Aldehydes, C5] | 460 |
